Experiments:
nACh receptors = molecular target: T1, nACh receptors (Rattus norvegicus, UniProt P09483+P12390); test: whole-cell patch-clamp of transfected HEK293 cells, neuronal nACh receptors, 300 μM ACh; format: cell-based; conditions: 300 μM ACh, estimated from 5 and 20 μM data; read-out: IC50 suggested by the inhibition data
T1 construct: expressed in transfected cells; host or cells: HEK293 (ATCC CRL1573), transient transfection
Experimental: (§1) Human embryonic kidney 293 (HEK293) fibroblasts (ATCC CRL1573) were cultured in minimal essential medium supplemented with 10% fetal bovine serum and 2 mM glutamine (Life Technologies, Rockville, Md.). Cells were plated on poly-D-lysine-coated 35 mm nunc dishes, transfected by the LipofectaminePLUS method (Life Technologies), and examined functionally between 18-48 h post transfection. The following receptor subunit cDNAs were used: nAChR-α3 (nicotinic acetylcholine receptor-α3; accession no. L31621), nAChR-α4 (accession no. L31620), nAChR-β2 (accession no. L31622), nAChR-β4 (accession no. U42976), 5-HT3R-A (5-HT3A receptor; accession no. M74425), NR1 (N-methyl-D-aspartate receptor 1; accession no. X63255), NR2A (accession no. X91561), and NR2B (accession no. M91562). The nAchR and NR clones were rat; the 5-HT3R-A clone was mouse. Co-transfection of enhanced green fluorescent protein (“EGFP”) (10% of total cDNA) provided a marker to identify transfected cells. Transfected cells were selected for EGFP expression and examined by voltage-clamp recording in the whole-cell configuration using an Axopatch 200B patch-clamp amplifier (Axon Instruments, Foster City, Calif.). Thin-walled borosilicate glass microelectrodes (TW150F, World Precision Instruments, Sarasota, Fla.) had resistances of 3-5 MΩ when filled with an internal solution containing (in mM): 135 CsCl, 10 CsF, 10 HEPES (N-[2-hydroxyethyl]piperazine-N′-[2-ethanesulfonic acid]), 5 EGTA (ethylene glycol-bis[β-aminoethyl ether]-N,N,N′,N′-tetraacetic acid), 1 MgCl2, 0.5 CaCl2, pH 7.2. Whole-cell capacitance and series resistance were recorded and adequately compensated using the available circuitry of the amplifier. Current responses were filtered at 1 kHz with an 8-pole Bessel filter (Cygnus Technologies, Delaware Water Gap, Pa.), digitized at 3 kHz, and stored on a Macintosh PowerPC-G3 computer using an ITC-16 interface (Instrutech, Great Neck, N.Y.) under control of the data acquisition and analysis program Synapse (Synergy Research, Gaithersburg, Md.). Cells were continuously superfused with extracellular solution containing (in mM): 150 NaCl, 3 KCl, 5 HEPES, 1 MgCl2, 1.8 CaCl2, 10 glucose, and 0.1 mg/ml phenol red, pH 7.3 (MgCl2 was omitted from all solutions used for the study of NMDA receptors). […] Control, agonist, and drug solutions were applied to individual cells by rapid perfusion. Solutions were driven by a syringe pump through a flowpipe having 4 inputs that converge at a single common output of approximately 100 μm diameter. Rapid switching between inputs was achieved using a set of upstream solenoid valves (Lee Co., Westbrook, Conn.) under computer control; the solution exchange rate was ˜5 ms as measured from liquid junction currents.
(§2) Transfected HEK293 cells expressing various receptor subunit cDNAs were examined by whole-cell patch-clamp recording with fast perfusion of agonist and drug solutions. […] Transfected HEK293 cells expressing α3β4 nACh receptors were voltage-clamped to −70 mV and stimulated with 1 mM ACh at 30 s intervals. […] In FIG. 1A, open bars depict the timing of ACh application; filled bars depict the timing of co-application of 20 μM IBO or 20 μM 18MC; and inhibition was measured relative to control at the end of the drug application (indicated by arrows). […] The data presented in FIG. 1B are mean±SEM for 3-14 cells per point, and curve fits are given for the logistic equation: I=Imax/(1+([drug]/IC50)). […] In this case, transfected HEK293 cells expressing α3β4 nACh receptors were voltage-clamped to −70 mV and stimulated with 300 μM ACh at 30 s intervals.

α3β4 nACh receptors = molecular target: T2, α3β4 nACh receptors (Rattus norvegicus, UniProt P09483+P12390); test: as above; format: cell-based
T2 construct: expressed in transfected cells; host or cells: HEK293 (ATCC CRL1573), transient transfection
T2 sequence (P09483 31-630): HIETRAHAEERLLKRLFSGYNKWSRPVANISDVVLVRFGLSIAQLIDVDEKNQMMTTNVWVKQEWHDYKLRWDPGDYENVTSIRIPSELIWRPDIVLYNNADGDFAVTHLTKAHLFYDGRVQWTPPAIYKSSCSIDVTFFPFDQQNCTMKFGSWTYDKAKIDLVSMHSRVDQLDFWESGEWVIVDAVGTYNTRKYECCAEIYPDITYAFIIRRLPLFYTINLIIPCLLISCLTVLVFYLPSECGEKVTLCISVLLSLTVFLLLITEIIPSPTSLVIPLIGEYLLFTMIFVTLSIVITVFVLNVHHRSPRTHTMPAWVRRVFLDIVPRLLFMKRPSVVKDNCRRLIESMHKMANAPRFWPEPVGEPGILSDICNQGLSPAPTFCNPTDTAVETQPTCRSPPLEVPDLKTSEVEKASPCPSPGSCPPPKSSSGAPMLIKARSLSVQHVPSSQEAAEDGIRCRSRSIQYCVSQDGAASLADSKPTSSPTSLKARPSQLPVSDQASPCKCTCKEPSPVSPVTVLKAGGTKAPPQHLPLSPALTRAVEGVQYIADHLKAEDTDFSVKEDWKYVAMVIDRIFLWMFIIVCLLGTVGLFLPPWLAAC
T2 sequence (P12390 25-500): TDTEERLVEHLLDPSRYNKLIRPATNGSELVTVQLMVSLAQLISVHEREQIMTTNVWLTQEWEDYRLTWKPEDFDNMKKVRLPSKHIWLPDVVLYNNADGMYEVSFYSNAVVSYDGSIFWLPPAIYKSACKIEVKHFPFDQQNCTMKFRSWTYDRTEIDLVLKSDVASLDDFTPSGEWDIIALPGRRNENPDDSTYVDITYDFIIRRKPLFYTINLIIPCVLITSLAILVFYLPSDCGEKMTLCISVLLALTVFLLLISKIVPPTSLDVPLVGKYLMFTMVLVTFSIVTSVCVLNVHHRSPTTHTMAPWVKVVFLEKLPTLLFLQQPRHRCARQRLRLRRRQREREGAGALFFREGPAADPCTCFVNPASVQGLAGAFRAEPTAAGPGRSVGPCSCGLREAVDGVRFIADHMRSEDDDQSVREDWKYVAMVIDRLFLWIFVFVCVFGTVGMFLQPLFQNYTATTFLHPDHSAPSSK
Experimental: as §1, §2

T1 sequence (P09483 31-630): as the sequence (P09483 31-630) above
T1 sequence (P12390 25-500): as the sequence (P12390 25-500) above

In the case of `COCC[C@H]1CC2CN3CCc4c([nH]c5ccccc45)[C@](C(=O)OC)(C2)[C@H]13` [18-methoxycoronaridine], the IC50 (nACh receptors) is reported as > 20 µM, the “inhibition of ACh-evoked response” value (α3β4 nACh receptors; 5 μM drug with 300 μM ACh) is reported as “no apparent inhibition” and the “response to drug applied alone (agonist activity)” value (α3β4 nACh receptors; 20 μM drug alone, -70 mV) is reported as “did not produce any response”. The “inhibition of ACh-evoked response” value (α3β4 nACh receptors; 20 μM drug with 300 μM ACh, FIG. 2) was 8 ±4%.

From patent US6780871B2, “Methods and compositions for treating addiction disorders” (Albany Medical College, priority 2001, dated 2004)
